Laboratory results reported in US9504669B2, “Spliceostatin analogs and methods for their preparation” (PFIZER INC., priority 2012, dated 2016).
Like-named read-outs stand apart in the source and are kept apart here.

Tests used:
[1] = tested on: N87 (gastric cancer) cells; assay: In vitro cell assay (MTS cell viability), N87; type: cell-based; conditions: free compounds (natural products and synthetic analogs), cell viability 96 hours after treatment
Outline: (§1)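 Cells seeded 24 h, then treated with antibody-drug conjugates or free drug, 3-fold serial dilutions at 10 concentrations in duplicate. Viability by MTS at 96 h as percent of untreated control; IC50 from four-parameter logistic fit.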

[2] = tested on: MDA-MB-361-DYT2 (breast cancer) cells; assay: In vitro cell assay (MTS cell viability), MDA-MB-361-DYT2; type: cell-based; conditions: free compounds (natural products and synthetic analogs), cell viability 96 hours after treatment
Outline: as §1

[3] = tested on: MDA-MB-468 cells (target non-expressing); assay: In vitro cell assay (MTS cell viability), MDA-MB-468; type: cell-based; conditions: Homo sapiens
Method: Target expressing (BT474 (breast cancer), N87 (gastric cancer), HCC1954 (breast cancer), MDA-MB-361-DYT2 (breast cancer)) or non-expressing (MDA-MB-468) cells were seeded in 96-well cell culture plates for 24 hours before treatment. Cells were treated with 3-fold serially diluted antibody-drug conjugates or free compounds (i.e., no antibody conjugated to the drug) in duplicate at 10 concentrations. Cell viability was determined by CellTiter 96® AQueous One Solution Cell Proliferation MTS Assay (Promega, Madison Wis.) 96 hours after treatment. Relative cell viability was determined as percentage of untreated control. IC50 values were calculated using a four parameter logistic model #203 with XLfit v4.2 (IDBS, Guildford, Surry, UK). The potency ranged upward from 0.0002 nm. Similar procedures and techniques were employed.

[4] = tested on: BT474 (breast cancer) cells; assay: In vitro cell assay (MTS cell viability), BT474; type: cell-based; conditions: Homo sapiens, BT-474; free compounds (natural products and synthetic analogs); cell viability 96 hours after treatment
Outline: as §1

xenograft tumor models = conditions: Journal of Antibiotics (1996), 49(12), 1204-1211; cited from earlier work
human cancer cell lines = conditions: Journal of Antibiotics (1996), 49(12), 1204-1211; cited from earlier work
[5] = tested on: spliceosome (SF3b, component of the subcomplex U2 snRNA); conditions: Nature Chemical Biology (2007), 3(9), 576-583; Nature (2010), 468(7324), 664-668; cited from earlier work
[6] = MDA-MB-468, 96 h, read-out: MDA-MB-468 IC50 (nM)

| Compound | IC50 ([1]; 96 h) [nM] | IC50 ([2]; 96 h) [nM] | IC50 [3, 6] [nM] | IC50 [4] [nM] | efficacies in xenograft tumor models (xenograft tumor models) | inhibitory activities against human cancer cell lines (human cancer cell lines) | further results |
| --- | --- | --- | --- | --- | --- | --- | --- |
| CCCC(=O)NC[C@@H]1C[C@@]2(CO2)C[C@@H](/C=C/C(C)=C/C[C@@H]2O[C@H](C)[C@H](NC(=O)/C=C\[C@H](C)OC(C)=O)C[C@@H]2C)O1 [#B173, (2S,3Z)-5-({(2R,3R,5S,6S)-6-[(2E,4E)-5-{(3R,5S,7S)-7-[(butanoylamino)methyl]-1,6-dioxaspiro[2.5]oct-5-yl}-3-methylpenta-2,4-dien-1-yl]-2,5-dimethyltetrahydro-2H-pyran-3-yl}amino)-5-oxopent-3-en-2-yl acetate] | 6.38 | 29.1 | 7.85 | 3.64 | – | – | – |
| CC(=O)O[C@@H](C)/C=C\C(=O)N[C@@H]1C[C@H](C)[C@H](C/C=C(C)/C=C/[C@H]2O[C@H](CC(=O)O)C[C@@]3(CO3)[C@@H]2O)O[C@@H]1C [#NP1, [(3R,5S,7R,8R)-7-{(1E,3E)-5-[(2S,3S,5R,6R)-5-{[(2Z,4S)-4-(acetyloxy)pent-2-enoyl]amino}-3,6-dimethyltetrahydro-2H-pyran-2-yl]-3-methylpenta-1,3-dien-1-yl}-8-hydroxy-1,6-dioxaspiro[2.5]oct-5-yl]acetic Acid] | 61.6 | 160 | 142 | 145 | – | – | – |
| CC(=O)O[C@@H](C)/C=C\C(=O)N[C@@H]1C[C@H](C)[C@H](C/C=C(C)/C=C/[C@@H]2C[C@]3(CO3)C[C@@H](CC(=O)O)O2)O[C@@H]1C [#NP2, [(3S,5S,7S)-7-{(1E,3E)-5-[(2S,3S,5R,6R)-5-{[(2Z,4S)-4-(acetyloxy)pent-2-enoyl]amino}-3,6-dimethyltetrahydro-2H-pyran-2-yl]-3-methylpenta-1,3-dien-1-yl}-1,6-dioxaspiro[2.5]oct-5-yl]acetic acid] | – | – | – | 5.12 | – | – | IC50 [1]: 2.51 nM; IC50 [2]: 8.5 nM; IC50 ([3]; MDA-MB-468, free compounds (natural products and synthetic analogs), cell viability 96 hours after treatment, read-out: MDA-MB-468 IC50): 3.39 nM |
| CC(=O)O[C@@H](C)/C=C\C(=O)N[C@@H]1C[C@H](C)[C@H](C/C=C(C)/C=C/[C@@H]2CC(C)=CC(=O)O2)O[C@@H]1C [#NP11, (2S,3Z)-5-{[(2R,3R,5S,6S)-2,5-dimethyl-6-{(2E,4E)-3-methyl-5-[(2S)-4-methyl-6-oxo-3,6-dihydro-2H-pyran-2-yl]penta-2,4-dien-1-yl}tetrahydro-2H-pyran-3-yl]amino}-5-oxopent-3-en-2-yl acetate] | 3.67 | 4.16 | 1.55 | 3.72 | – | – | – |
| CC(=O)O[C@@H](C)/C=C\C(=O)N[C@@H]1C[C@H](C)[C@H](C/C=C(C)/C=C/[C@H]2O[C@](C)(O)C[C@@](O)(CCl)[C@@H]2O)O[C@@H]1C [FR901463] | – | – | – | – | efficacies in several xenograft tumor models | potent inhibitory activities | – |
| CC(=O)O[C@@H](C)/C=C\C(=O)N[C@@H]1C[C@H](C)[C@H](C/C=C(C)/C=C/[C@H]2O[C@](C)(O)C[C@@]3(CO3)[C@@H]2O)O[C@@H]1C [FR901464] | – | – | – | – | efficacies in several xenograft tumor models | potent inhibitory activities | inhibition of the spliceosome [5]: inhibit the spliceosome by interaction with SF3b |
| CO[C@]1(C)C[C@@]2(CO2)[C@H](O)[C@@H](/C=C/C(C)=C/C[C@@H]2O[C@H](C)[C@H](NC(=O)/C=C\[C@H](C)OC(C)=O)C[C@@H]2C)O1 [spliceostatin A] | – | – | – | – | – | – | inhibition of the spliceosome [5]: inhibit the spliceosome by interaction with SF3b |
| FR901465 | – | – | – | – | efficacies in several xenograft tumor models | potent inhibitory activities | – |
